Test results reported in patent EP4578449A1, “PHARMACEUTICAL COMBINATION OF FAK INHIBITOR AND MICROTUBULE INHIBITOR AND USE THEREOF” (Inxmed (Nanjing) Co., Ltd., priority 2022, dated 2024).

Tests used:
colon cancer CT26 cells = test: IN10018 and Docetaxel: microscopy and CRT/Annexin-V/PI flow cytometry; type: cell-based, mouse; conditions: 48 hours, IN10018 5 µM, Docetaxel 0.1 µM, alone or combined
Description: CT26 cells (Institute of Cell Biology, Chinese Academy of Sciences) were cultured with RPMI-1640 (Shanghai Basalmedia, catalog number: L210KJ, batch number: F210916) + 10% FBS (Gibco, catalog number: 10099-141c, batch number: 2158737cp), and passaged twice. When the cells were in good condition, they were placed in a 24-well plate. After 24 hours of cell spreading, four groups were set up. The first group was the control group, in which culture medium was added; the second group was IN10018 at a concentration of 5µM; the third group was Docetaxel (MCE, classification number: HY-B0011, batch number: 111613) with a concentration of 0.1µM; and the fourth group was the combination group of IN10018 (5 µM) and Docetaxel (0.1µM). The drugs were mixed and cultured in a 5 % CO2 incubator at 37°C for 48 hours.
After 48 hours of drug action, the cells were observed and photographed under a microscope. The photos were saved. Then the cells were collected for flow cytometry, and the cells were washed twice with flow buffer (PBS + 2% FBS). 0.5 µl of AF647 anti-calreticulin antibody (abcam, catalog number: ab196159, batch number: CR33676773) was added to each well, and fully mixed. The cells were incubated at 4 °C for 20 minutes in the dark. […] The mixture was incubated at room temperature in the dark for 15 minutes, and then analyzed on a flow cytometer.

[1] = test system: mouse colon cancer CT26 cells; test: Docetaxel/Eribulin/Paclitaxel and Defactinib: microscopy and CRT/Annexin-V/PI flow cytometry; type: cell-based; conditions: 48 hours, Defactinib 5 µM, Docetaxel 0.3 µM, Eribulin 0.3 µM, Paclitaxel 6 µM, alone or combined with Defactinib
Description: CT26 cells were cultured in monolayer in vitro under the following conditions: RPMI-1640 medium with 10% fetal bovine serum, 37°C, 5% CO2. Trypsin was used for routine digestion and passage treatment two to three times a week. When the cells were in the exponential growth phase and the adherent confluence reached 80%-90%, the cells were harvested and plated.
CT26 cells were digested with trypsin, and then the cells were collected and counted. Based on the counting results, the cells were diluted with the corresponding complete culture medium to a concentration of 50,000 cells per milliliter. Then the cells were plated in 12-well cell culture plates, with 2 ml of cell suspension per well, i.e., 100,000 cells.
After plating, the cells were cultured in a 37°C and 5% CO2 incubator.
After 24 hours of plating, the test compounds Docetaxel, Eribulin, Paclitaxel and Defactinib were added to different wells, respectively.
After 48 hours of drug action, the cells were photographed using a microscope, and then trypsinized and collected for flow cytometry staining.
The cells were washed twice with flow buffer (DPBS + 2% FBS). 0.5 µL of AF647 Anti-Calreticulin Antibody was added to each well, and mixed well. The cells were incubated at 4°C in the dark for 20 min. After washing once with flow buffer, 195 µL of Annexin-V-FITC binding solution was added, and the cells were gently mixed well. 5 µL of Annexin-V-FITC antibody was added. After further mixing, 10 µL of PI dye was added and mixed well. The cells were incubated at room temperature in the dark for 15 min. The cells were then subjected to flow cytometry.
After the assay, the cell positive rate was analyzed by Flowjo (V10) software.

breast cancer 4T1 cells = test: Subcutaneous allograft tumor model of breast cancer 4T1 cells in BALB/c mice; type: in vivo
From the text: Mice: Female BALB/c mice aged 6-8 weeks were purchased from SHANGHAI SLAC LABORATORY ANIMAL CO. LTD. The assay began after the animals were adapted to the assay environment upon arrival. The animals were kept in IVC (independent ventilation system) cages (5 per cage) in an SPF animal room. All cages, padding and drinking water must be sterilized before use. All assay personnel should wear protective clothing and latex gloves when operating in the animal room. Cages, feed and drinking water were replaced twice a week. The feeding environment and lighting conditions were as follows: • Temperature: 20-26 °C • Humidity: 40-70% • Lighting period: 12 hours light, 12 hours no light • Cages: Made of polycarbonate, 300 mm × 180 mm × 150 mm. The padding was corn cobs, which was replaced twice a week. • Food: The assay animals had free access to food (dry pelleted food sterilized by irradiation) throughout the assay period. • Drinking water: Assay animals were free to drink sterile water. • Cage identification: The animal information card for each cage should indicate the number of animals in the cage, gender, strain, receipt date, dosing regimen, assay number, group and start date of the assay. • Animal identification: Assay animals were identified with ear tags.
Breast cancer cell 4T1 (source: Nanjing Cobioer Biotechnology Co., Ltd., catalog number: CBP60352) was maintained and passaged by INXMED (Nanjing) Co., Ltd. The cells were cultured in a monolayer in vitro in RPMI-1640 medium with 10% fetal bovine serum in a 37 °C, 5% CO2 incubator. Trypsin-EDTA was used for routine digestion and passage treatment two to three times a week. When the cells were in the exponential growth phase and the adherent confluence reached 80%-90%, the cells were harvested and plated.
0.1 mL of cell suspension containing 2 x 10^5 cells was subcutaneously inoculated on the right back of each mouse. When the tumor volume reached ~52 mm^3 (10th day after cell inoculation), the mice were randomly divided into groups for drug administration according to the tumor volume. Table 9. Dosing regimen of the test substance in 4T1 mouse transplant tumor model
The formulation and any modifications of this assay protocol had been assessed and approved by the IACUC of ArrayBridge. The use and welfare of assay animals were carried out in accordance with AAALAC regulations. The health status and mortality of animals were monitored daily, with routine checks including observation of tumor growth and the impact of drug treatment on the animals' daily behavior, such as activity, food and water intake (estimated by visual inspection), changes in body weight, physical signs, or any other abnormalities. The number of animal deaths and side effects in each group were recorded based on the number of animals in each group.
If the animal's health condition continued to deteriorate, or if the tumor volume exceeded 3,000 mm^3, or there was a serious disease or pain, euthanasia should be carried out. In the following cases, the veterinarian was notified and euthanasia was performed: obvious weight loss, i.e., weight loss greater than 20%; inability to freely eat and drink; the average tumor volume of the control group reached 2000 mm^3, the assay was terminated.
Tumor diameters were measured three times a week using calipers. The tumor volume was calculated using the formula: V = 0.5 × a × b^2, where a and b represent the long and short diameters of the tumor, respectively.
Based on the tumor volume on the first day after grouping, the tumor growth inhibition rate TGI (%) was calculated according to the following formula: TGI (%) = [1 - (average tumor volume of a treatment group - average tumor volume of the treatment group at the beginning of treatment) / (average tumor volume of the solvent control group - average tumor volume of the solvent control group at the beginning of treatment)] × 100%. […]

CC(=O)O[C@@]12CO[C@@H]1C[C@H](O)[C@@]1(C)C(=O)[C@H](O)C3=C(C)[C@@H](OC(=O)[C@H](O)[C@@H](NC(=O)OC(C)(C)C)c4ccccc4)C[C@@](O)([C@@H](OC(=O)c4ccccc4)[C@H]21)C3(C)C [Docetaxel]
cell status under a microscope (colon cancer CT26 cells): poor | cell status (cell death) under a microscope [1]: obvious | Tumor volume on day 0 (breast cancer 4T1 cells; baseline at grouping (10th day after inoculation), mean ± standard error, 6 mice per group): 51.1 ± 13.2 mm^3 | TGI (breast cancer 4T1 cells; day 21 after administration, vs control group, DTX 10 mg/kg i.p. BIW, IN10018 25 mg/kg p.o. QD, MAX10181 120 mg/kg p.o. BID): 14.9% | Tumor volume on day 21 (breast cancer 4T1 cells; day 21 after administration, DTX 10 mg/kg i.p. BIW, IN10018 25 mg/kg p.o. QD, MAX10181 120 mg/kg p.o. BID, mean ± standard error): 1818.7 ± 644.0 mm^3
